Reference: patent US4886667A, “External preparation composition” (priority 1985, dated 1989)
Values after ≈ are worked out from the molar mass of the structure shown. Where two headings read alike, the source gives them in different places.

What was measured:
[1] = tested on: Trichophyton mentagrophytes IFO 5810; assay: Antifungal activity in vivo by trichophytosis of guinea pig; settings: 1% solution; for Fungal negativity index / Healing index: 0.1 ml once a day for 8 days, guinea pig trichophytosis
[2] = tested on: Trichophyton rubrum IFO 5467; assay: Minimum inhibitory concentration (MIC), agar dilution method, standard strains; type: cell-based; settings: for MIC: read-out: Minimum inhibitory concentration to standard strains
[3] = tested on: Microsporum gypseum IFO 8231; assay: as above; type: cell-based; settings: for MIC: Nannizzia gypsea, read-out: Minimum inhibitory concentration to standard strains
[4] = tested on: Fusobacterium nucleatum ATCC 25586; assay: as above; type: cell-based; settings: 37° C., 60 hrs; for MIC: ATCC25586, anaerobic
[5] = tested on: Corynebacterium acnes ATCC 11828; assay: as above; type: cell-based; settings: for MIC: Cutibacterium acnes, read-out: Minimum inhibitory concentration to standard strains
[6] = tested on: Staphylococcus aureus ATCC 6538P; assay: as above; settings: for MIC: Staphylococcus aureus, ATCC6538P, 48 h, read-out: Minimum inhibitory concentration to standard strains; for Minimum inhibitory concentration to standard strains: Staphylococcus aureus ATCC 6538P, aerobic, 37° C., 48 hrs
[7] = tested on: Trichophyton mentagrophytes IFO 5466; assay: as above; type: cell-based; settings: for MIC: read-out: Minimum inhibitory concentration to standard strains
[8] = tested on: Bacteroides fragilis RIMD 023001; assay: as above; type: cell-based; settings: 37° C., 60 hrs; for MIC: RIMD023001, anaerobic; for Minimum inhibitory concentration to standard strains: anaerobic
[9] = tested on: Staphylococcus epidermidis ATCC 12228; assay: as above; settings: for MIC: Staphylococcus epidermidis, ATCC12228, 48 h, read-out: Minimum inhibitory concentration to standard strains; for Minimum inhibitory concentration to standard strains: Staphylococcus epidermidis ATCC 12228, aerobic, 37° C., 48 hrs
[10] = tested on: Candida albicans ATCC 10261; assay: as above; settings: for Minimum inhibitory concentration to standard strains: yeast, Sabouraud medium; for MIC: ATCC10261, read-out: Minimum inhibitory concentration to standard strains
[11] = tested on: Staphylococcus pyogenes ATCC 10389; assay: as above; settings: aerobic, 37° C., 48 hrs
[12] = tested on: Bacteroides fragilis (48 isolated strains); assay: MIC against clinically isolated strains (cumulation percent); type: cell-based; settings: for MIC: 60 h, read-out: range of effective concentration
[13] = tested on: Clostridium perfringens (9 isolated strains); type: cell-based; settings: 9 isolated strains of clostridium perfringens
[14] = Acute toxicity in mice; settings: for LD50 / Mortalities (Dead/Treated): male mice; for LD50: 23040 min; for Mortalities (Dead/Treated): 16 days
[15] = tested on: clinically isolated anaerobic bacteria; type: cell-based; settings: 70 isolated strains of the tested bacteria
[16] = IFO5467, Trichophyton rubrum IFO 5467, aerobic, 168 hrs
[17] = IFO8231, Microsporum gypseum IFO 8231, aerobic, 168 hrs
[18] = ATCC11828, Corynebacterium acnes ATCC 11828, anaerobic, 37° C., 60 hrs
[19] = IFO5466, Trichophyton mentagrophytes IFO 5466, aerobic, 168 hrs
[20] = 48 isolated strains of Bacteroides fragilis, 100% efficiency stated for Ratanhiaphenol

Q: What does the source list for Clc1ccccc1C(c1ccccc1)(c1ccccc1)n1ccnc1 [Clotrimazole]?
A: Fungal negativity index [1]: 88%; Healing index [1]: 60%

Q: What does the source list for CC1(C)S[C@@H]2[C@H](NC(=O)[C@H](C(=O)O)c3ccsc3)C(=O)N2[C@H]1C(=O)O [L, Ticarcillin]?
A: MIC [2, 16]: > 1000 mg/L; MIC [3, 17]: > 1000 mg/L; MIC [4]: 6.25 mg/L (≈ 16.3 µM); MIC [5, 18]: 50 mg/L (≈ 130 µM); MIC [6]: 3.13 mg/L (≈ 8.14 µM); MIC [7, 19]: > 1000 mg/L; MIC [8]: 50 mg/L (≈ 130 µM); MIC [9]: 6.25 mg/L (≈ 16.3 µM)

Q: Which MIC [2, 16] does the source give for CC1(C)S[C@@H]2[C@H](NC(=O)[C@H](NC(=O)c3cnc4cccnc4c3O)c3ccccc3)C(=O)N2[C@H]1C(=O)O [M, Apalcillin] here?
A: > 1000 mg/L

Q: And the MIC [3, 17]?
A: > 1000 mg/L

Q: What about the MIC [4] of the same compound?
A: 12.5 mg/L (≈ 24 µM)

Q: What about the MIC [5, 18] of the same compound?
A: 25 mg/L (≈ 47.9 µM)

Q: And the MIC [6]?
A: 50 mg/L (≈ 95.9 µM)

Q: What about the MIC [7, 19] of the same compound?
A: > 1000 mg/L

Q: And the MIC [8]?
A: 50 mg/L (≈ 95.9 µM)

Q: What about the MIC [9] of the same compound?
A: 25 mg/L (≈ 47.9 µM)

Q: Which results are given for Cc1cc(O)ccc1C(C)C [N, Isopropylmethylphenol]?
A: Minimum inhibitory concentration to standard strains [10]: 200 mg/L (≈ 1330 µM); Minimum inhibitory concentration to standard strains [6]: 400 mg/L (≈ 2660 µM); Minimum inhibitory concentration to standard strains [11]: 100 mg/L (≈ 666 µM); Minimum inhibitory concentration to standard strains [8]: 400 mg/L (≈ 2660 µM); Minimum inhibitory concentration to standard strains [9]: 200 mg/L (≈ 1330 µM)

Q: For COC1=CC(=O)C[C@@H](C)[C@]12Oc1c(Cl)c(OC)cc(OC)c1C2=O [O, Griseofulvin], which MIC [2, 16] is on record?
A: 6.25 mg/L (≈ 17.7 µM)

Q: What about the MIC [3, 17] of the same compound?
A: 6.25 mg/L (≈ 17.7 µM)

Q: What about the MIC [10] of the same compound?
A: > 1000 mg/L

Q: And the MIC [6]?
A: > 1000 mg/L

Q: And the MIC [7, 19]?
A: 6.25 mg/L (≈ 17.7 µM)

Q: And the MIC [8]?
A: 200 mg/L (≈ 567 µM)

Q: What about the MIC [9] of the same compound?
A: > 1000 mg/L

Q: With Cc1cccc(N(C)C(=S)Oc2ccc3ccccc3c2)c1 [P, Tolnaftate] as the compound, how does the MIC [2, 16] read?
A: 0.1 mg/L (≈ 0.325 µM)

Q: What about the MIC [3, 17] of the same compound?
A: 0.1 mg/L (≈ 0.325 µM)

Q: What about the MIC [4] of the same compound?
A: 200 mg/L (≈ 651 µM)

Q: And the MIC [10]?
A: > 1000 mg/L

Q: And the MIC [6]?
A: > 1000 mg/L

Q: What about the MIC [7, 19] of the same compound?
A: 0.1 mg/L (≈ 0.325 µM)

Q: And the MIC [9]?
A: > 1000 mg/L

Q: For C=CCCCCCCCCC(=O)O [Q, Undecylenic acid], which MIC ([2]; Trichophyton rubrum, IFO5467, 168 h) is on record?
A: 12.5 mg/L (≈ 67.8 µM)

Q: And the MIC ([3]; IFO8231, 168 h)?
A: 6.25 mg/L (≈ 33.9 µM)

Q: What about the MIC [10] of the same compound?
A: 200 mg/L (≈ 1090 µM)

Q: And the MIC ([5]; ATCC11828, 60 h)?
A: 400 mg/L (≈ 2170 µM)

Q: And the MIC [6]?
A: > 1000 mg/L

Q: What about the MIC ([7]; Trichophyton mentagrophytes, IFO5466, 168 h) of the same compound?
A: 12.5 mg/L (≈ 67.8 µM)

Q: And the MIC [9]?
A: > 1000 mg/L

Q: For CN(C)[C@@H]1C(=O)C(C(N)=O)=C(O)[C@@]2(O)C(=O)C3=C(O)c4c(O)cccc4[C@@](C)(O)[C@H]3C[C@@H]12 [R, Tetracycline], which MIC ([12]; Bacteroides fragilis) is on record?
A: 1.56 to 400 mg/L (≈ 3.51 to 900 µM)

Q: Which MIC [12, 20] does the source give for CC1=C(C(=O)O)N2C(=O)[C@@H](NC(=O)[C@H](N)c3ccccc3)[C@H]2SC1 [S, Cefalexin] here?
A: 3.13 to 400 mg/L (≈ 9.01 to 1150 µM)

Q: With C[CH2][Hg][S]c1ccccc1C(=O)[O-].[Na+] [Thimerosal] as the compound, how does the Fungal negativity index [1] read?
A: 100%

Q: What about the Healing index [1] of the same compound?
A: 100%

Q: Which “range of effective concentration (100% efficiency)” value [13] does the source give for Ratanhiaphenol [F] here?
A: 3.13 to 12.5 µg/mL

Q: What about the “healing effect compared with 1% clotrimazole solution” value [1] of the same compound?
A: equivalent to that of 1% clotrimazole solution

Q: What about the Fungal negativity index [1] of the same compound?
A: 81%

Q: And the Healing index [1]?
A: 67%

Q: What about the “Minimum inhibitory concentration to standard strains” value (“Minimum inhibitory concentration” for short) ([2]; Trichophyton rubrum IFO 5467, aerobic, 168 hrs) of the same compound?
A: 1.56 mg/L

Q: What about the “Minimum inhibitory concentration” value ([3]; Microsporum gypseum IFO 8231, aerobic, 168 hrs) of the same compound?
A: 0.78 mg/L

Q: And the “Minimum inhibitory concentration” value ([4]; anaerobic)?
A: 6.25 mg/L

Q: What about the “Minimum inhibitory concentration” value [10] of the same compound?
A: > 10 mg/L

Q: And the LD50 ([14]; oral administration)?
A: 5000 mg/kg

Q: What about the toxicity ([14]; oral or subcutaneous single dose, mice) of the same compound?
A: low

Q: What about the abnormal sign ([14]; oral or subcutaneous single dose, mice, 16 days observation) of the same compound?
A: no abnormal sign was observed

Q: And the “Mortalities (Dead/Treated)” value ([14]; oral, 1 g/kg)?
A: 0/5

Q: And the “Mortalities (Dead/Treated)” value ([14]; oral, 5 g/kg)?
A: 2/5

Q: And the LD50 ([14]; subcutaneous administration)?
A: > 5000 mg/kg

Q: What about the “Mortalities (Dead/Treated)” value ([14]; subcutaneous, 1 g/kg) of the same compound?
A: 0/5

Q: What about the “Mortalities (Dead/Treated)” value ([14]; subcutaneous, 5 g/kg) of the same compound?
A: 0/5

Q: And the “Minimum inhibitory concentration” value ([5]; Corynebacterium acnes ATCC 11828, anaerobic, 37° C., 60 hrs)?
A: 6.25 mg/L

Q: What about the “Minimum inhibitory concentration” value [6] of the same compound?
A: 0.39 mg/L

Q: And the “Minimum inhibitory concentration” value [11]?
A: 0.10 mg/L

Q: What about the “range of effective concentration” value [12, 20] of the same compound?
A: 1.56 to 6.25 µg/mL

Q: What about the “range of effective concentration (100% efficiency)” value [15] of the same compound?
A: 1.56 to 12.5 µg/mL

Q: What about the “Minimum inhibitory concentration” value ([7]; Trichophyton mentagrophytes IFO 5466, aerobic, 168 hrs) of the same compound?
A: 1.56 mg/L

Q: What about the “Minimum inhibitory concentration” value [8] of the same compound?
A: 6.25 mg/L

Q: What about the “Minimum inhibitory concentration” value [9] of the same compound?
A: 0.39 mg/L
